Experimental data reported in US10729678B2, “Preparation of and formulation comprising a MEK inhibitor” (Array BioPharma Inc., priority 2012, dated 2020).

Columns and labels:
[1] = tested on: unresectable, locally advanced or metastatic biliary cancer; conditions: 28 patients with ≤1 prior systemic therapy; oral 60 mg twice daily; after at least 6 weeks of treatment; cited from earlier work
[2] = tested on: BRAFV600 or NRAS-mutant melanoma; conditions: patients with either BRAFV600 or NRAS-mutant melanoma; cited from earlier work
[3] = Solubility of Compound A in solvents and solvent mixtures; assay type: physicochemical
Method: Due to this low solubility, it is difficult to perform crystallization by standard cooling methods and to control crystal growth. […] This improvement in solubility contributes to an improvement in the purity profile of the final drug substance.
As discussed above, the crystallization process makes use of anti-solvent cooling system. In step d), water is added to the suspension or the cooled suspension mixture to provide a treated mixture. Water, which in general acts as an anti-solvent (solubility <0.01% over a wide temperature range), also unexpectedly acts as a solvent for Compound A when part of the water/methanol/tetrahydrofuran solvent system.

For Cn1cnc2c(F)c(Nc3ccc(Br)cc3F)c(C(=O)NOCCO)cc21 [Compound A, 6-(4-Bromo-2-fluorophenylamino)-7-fluoro-3-methyl-3H-benzoimidazole-5-carboxylic acid (2-hydroxyethyoxy)-amide], the “complete regression (number of patients)” value [1] is listed as 1, the “partial regression (number of patients)” value [1] is listed as 1 and the “stable disease diagnoses (number of patients)” value [1] is listed as 11. The “effectiveness in treatment of patients” value [2] was “effective”, the “solvent mixture at which maximum solubility is reached” value ([3]; 65° C., solubility decreases with further addition of water) was “water (24%), methanol (38%), and tetrahydrofuran (38%)” and the “solubility in most standard solvents” value ([3]; room temperature) was “less than 1%”. The “increase of solubility on addition of water to solvent mixture” value ([3]; tetrahydrofuran and methanol with water, compared to methanol and tetrahydrofuran without water) was “approximately 50%” and the “solubility in water (anti-solvent)” value ([3]; water, broad/wide temperature range) was under 0.01%.
